Measured values taken from patent US12692267B2 (Madera Therapeutics, LLC, priority 2019, dated 2026).

Tests used:
[1] = target: recombinant human caseinolytic peptidase hClpP (Homo sapiens, UniProt Q16740); test: hClpP peptide hydrolysis assay (Ac-WLA-AMC); settings: Protocol 2, purified hClpP, Ac-WLA-AMC
Procedure: Briefly, the activity of recombinant hClpP proteolytic subunit (1 μg/mL) was measured in the assay buffer composed of 50 mM Tris, 10 mM MgCl2, 100 mM KCl, 1 mM DTT, 4 mM ATP, 0.02% Triton X-100 and 5% Glycerol, pH 8.0 (HCl) using 10 µM of fluorogenic Ac-WLA-AMC substrate as described in references above. […] Using the first protocol (Protocol 1), the reaction was initiated by immediately mixing enzyme and substrate in the presence of indicated doses of compounds. Applying a second protocol (Protocol 2), the enzyme and compounds were mixed and incubated in assay buffer for 60 min before initiating the reaction by adding Ac-WLA-ACM substrate.
Enzymatic activity of hClpP was measured in assay buffer (as described in Experimental Procedure/Materials and Methods) and the level of fluorescence of liberated coumarin monitored continuously.

[2] = test system: HCT116 (human colon cancer); test: Cancer cell viability, CCK-8, HCT116; format: cell-based; settings: Homo sapiens, HCT-116, 48 h, HCT116, 48 hours, CCK-8; read-out: EC50 (uM, HCT116)
Procedure: (§1) Cancer cell lines. […] The plate is incubated for 48 hours.
(§2) CCK-8 solution is added directly to the cells.

hClpP = target: T1, hClpP (Homo sapiens, UniProt Q16740); test: hClpP binding to immobilized compound Sepharose beads, Western blot
T1 construct: endogenous in cells; host or cells: HeLa cell lysate
T1 sequence (Q16740 57-277): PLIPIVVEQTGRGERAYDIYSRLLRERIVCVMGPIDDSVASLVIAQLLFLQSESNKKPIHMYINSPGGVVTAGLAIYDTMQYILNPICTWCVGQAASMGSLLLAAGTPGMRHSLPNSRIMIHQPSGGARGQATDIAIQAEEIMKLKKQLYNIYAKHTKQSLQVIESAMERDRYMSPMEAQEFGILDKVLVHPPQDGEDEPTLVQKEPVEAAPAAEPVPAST

[3] = test system: Capan-2 (human pancreatic adenocarcinoma); test: Cell viability CCK8, 72 hours, Capan-2; format: cell-based; settings: 72 hours of drug incubation
Procedure: (§3) For cancer cell lines, AN3CA (human uterine/endometrial cancer, Van Nyen, T. et al Int. J. Mol. Sci. 2018, 19, 2348 and referenced cited therein) cell line and Capan-2 (human pancreatic adenocarcinoma) cell line additional details for testing are as follows. Using 96 well cell culture plate (Corning Costar, Cat #3599), after addition of the test compound (Example 65, or other) the plate is incubated at 37° C., 5% CO2 for 72 hours. Cell viability was determined using CCK8 assay by adding […] of CCK8 into the assay well, incubate the plate for 2 hours and record […] using a SpectraMax i3X reader. Other 72 hour incubation studies can also using these details in addition to other experimental details described herein.
(§4) Example 65 was examined in AN3CA (human uterine cancer) and Capan-2 (human pancreatic adenocarcinoma) cancer cell lines.

[4] = test system: MDA-MB-231 triple negative breast cancer cells; test: Immunoblot of mitochondrial proteins, MDA-MB-231 (FIG. 12); format: cell-based; settings: MDA-MB-231, 100 nM, 3-48 hrs
Procedure: (§5) Immunoblot of SUM159 or MDA-MB-231 cells following 0.1% DMSO (48 hrs) or 100 nM Ex. 65 for indicated timepoints (3-48 hrs) for indicated proteins.

[5] = test system: SUM159 triple negative breast cancer cells; test: Immunoblot of mitochondrial proteins, SUM159 (FIG. 12); format: cell-based; settings: SUM159, 100 nM, 3-48 hrs
Procedure: as §5

[6] = test system: AN3CA (human uterine cancer); test: Cell viability CCK8, 72 hours, AN3CA; format: cell-based; settings: AN3-CA, 72 hours of drug incubation
Procedure: as §3, §4

[7] = test system: MDA-MB-231 (MDA 231, human breast adenocarcinoma); test: Cancer cell viability, CCK-8, MDA-MB-231; format: cell-based; settings: Homo sapiens, MDA-MB-231; MDA 231, 48 hours, CCK-8; read-out: EC50 (uM, MDA 231)
Procedure: as §1, §2

ALAS1 (SEQ ID NO. 2) = test: ALAS1 Western blotting time courses (FIG. 15-17); settings: Ex. 85 at 50 nM; 30 minute, sustained over 24 hrs
SUM159, ClpP CRISPR KO = test: Growth of SUM159 versus SUM159 ClpP CRISPR KO cells (FIG. 6); settings: SUM159 ClpP CRISPR KO compared to SUM159
ClpX and TUFM = ClpX and TUFM Western blots in SUM159 cells (FIG. 5); settings: concentration response and time course

Chain of recombinant human caseinolytic peptidase hClpP (Q16740 57-277): as above

In the case of `N#Cc1cccc(CN2CCc3c(c(=O)n(Cc4ccc(C(F)(F)F)cc4)c(=O)n3CCCN)C2)c1` [Ex. 57, 3-((1-(3-aminopropyl)-2,4-dioxo-3-(4-(trifluoromethyl)benzyl)-1,2,3,4,7,8-hexahydropyrido[4,3-d]pyrimidin-6 (5H)-yl)methyl)benzonitrile], the “Dose-dependency of hClpP activation” value [1] is reported as “dose-dependent increases in hClpP activity”, the EC50 [2] is reported as 0.057 µM and the “hClpP binding to compound coupled to Sepharose beads” value (hClpP) is reported as “directly binds”.
With `N#Cc1cccc(CN2CCc3ncn(Cc4ccc(Cl)cc4)c(=O)c3C2)c1` [Example 65] the “Dose-dependency of hClpP activation” value [1] was “Dose-dependent increases in hClpP activity”, the EC50 [2] was 0.021 µM and the IC50 [3] was < 50 nM. For the same molecule, the Mitochondrial protein degradation [4] was “induces degradation of mitochondrial proteins in a time dependent manner”, the Mitochondrial protein degradation [5] was “induces degradation of mitochondrial proteins in a time dependent manner” and the IC50 [6] was 1 nM.
In the case of `N#Cc1cccc(CN2CCc3cnn(Cc4ccc(Cl)cc4)c(=O)c3C2)c1` [Example 85, 3-((3-(4-chlorobenzyl)-4-oxo-3,5,7,8-tetrahydropyrido[3,4-d]pyridazin-6 (4H)-yl)methyl)benzonitrile], the EC50 [7] is reported as 0.003 µM, the EC50 [2] is reported as 0.008 µM and the “ALAS1 protein level (FIG. 16)” value (ALAS1 (SEQ ID NO. 2)) is reported as “rapidly degraded”.
With `Cn1c2c(c(=O)n(Cc3ccc(Cl)cc3)c1=O)CN(Cc1cccc(C#N)c1)CC2` [TR57] the “Effect on growth of ClpP CRISPR knockout cells” value (SUM159, ClpP CRISPR KO) was “resistant” and the “ClpX and TUFM protein level” value (ClpX and TUFM) was “reduction of the protein ClpX and TUFM”.
